Experimental data reported in patent US20250313563A1, “GLYCOGEN SYNTHASE KINASE 3 INHIBITORS AND USES THEREOF” (The Broad Institute, Inc., priority 2022, published 2025).
Where two headings read alike, the source gives them in different places.

Tests used:
[1] = biological target: GSK3b (GST-full length GSK3b) (Homo sapiens (Human), UniProt P49841); assay: GSK3b TR-FRET kinase assay; format: biochemical
Summary of the method: (§1)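 Compound was preincubated 30 min with 1 nM GST-GSK3 enzyme. Reaction ran 100 min at ambient temperature in Tris pH 7.5/MgCl2 with 200 nM biotinylated pS645-glycogen synthase 631-650 peptide and ATP (4 μM GSK3α, 2 μM GSK3b, or 1 mM). The EDTA-stopped reaction was read by TR-FRET (Tb-anti-pSer641/streptavidin-d2), and IC50s were fitted.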

[2] = biological target: GSK3α (GST-full length GSK3α) (Homo sapiens (Human), UniProt P49840); assay: GSK3α TR-FRET kinase assay; format: biochemical
Sequence of GSK3α (GST-full length GSK3α) (P49840 whole entry): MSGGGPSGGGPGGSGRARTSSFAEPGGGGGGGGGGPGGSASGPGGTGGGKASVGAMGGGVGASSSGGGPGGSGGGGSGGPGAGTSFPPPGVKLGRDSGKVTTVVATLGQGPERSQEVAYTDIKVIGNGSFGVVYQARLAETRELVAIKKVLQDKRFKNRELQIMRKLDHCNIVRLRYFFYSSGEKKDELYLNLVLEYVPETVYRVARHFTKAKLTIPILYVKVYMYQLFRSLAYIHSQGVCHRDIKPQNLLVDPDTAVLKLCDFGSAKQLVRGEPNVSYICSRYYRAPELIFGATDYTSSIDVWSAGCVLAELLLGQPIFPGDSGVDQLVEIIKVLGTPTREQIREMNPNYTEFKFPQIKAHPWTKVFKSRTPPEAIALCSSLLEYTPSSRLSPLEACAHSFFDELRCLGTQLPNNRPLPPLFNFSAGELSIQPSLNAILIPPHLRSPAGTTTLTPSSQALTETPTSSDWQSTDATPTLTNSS
Summary of the method: as §1

[3] = 1 nM GSK3b, 2 μM ATP, 30 minute preincubation, Table 16, read-out: GSK3-B TR-FRET BIOCHEMICAL (TR-FRET), IC50
[4] = 1 nM GSK3α, 4 μM ATP, 30 minute preincubation, Table 16, read-out: GSK3-A TR-FRET BIOCHEMICAL (TR-FRET), IC50
[5] = 1 nM GSK3b, 2 μM ATP, 30 minute preincubation, Table 16, read-out: GSK3-B TR-FRET BIOCHEMICAL (TR-FRET)
[6] = 1 nM GSK3α, 4 μM ATP, 30 minute preincubation, Table 16, read-out: GSK3-A TR-FRET BIOCHEMICAL (TR-FRET)
[7] = read-out: GSK3-B (TR-FRET 1 mM ATP), GMean, IC50, 1 mM ATP, geometric mean
[8] = 1 nM GSK3b, 2 μM ATP, 30 minute preincubation, read-out: GSK3-B TR-FRET BIOCHEMICAL (TR-FRET), IC50
[9] = 1 nM GSK3α, 4 μM ATP, 30 minute preincubation, read-out: GSK3-A TR-FRET BIOCHEMICAL (TR-FRET), IC50
[10] = GSK3-B (TR-FRET 1 mM ATP), GMean, IC50, 1 mM ATP, geometric mean
[11] = GSK3-A (TR-FRET 1 mM ATP), GMean, IC50, 1 mM ATP, geometric mean

Sequence of GSK3b (GST-full length GSK3b) (P49841 whole entry): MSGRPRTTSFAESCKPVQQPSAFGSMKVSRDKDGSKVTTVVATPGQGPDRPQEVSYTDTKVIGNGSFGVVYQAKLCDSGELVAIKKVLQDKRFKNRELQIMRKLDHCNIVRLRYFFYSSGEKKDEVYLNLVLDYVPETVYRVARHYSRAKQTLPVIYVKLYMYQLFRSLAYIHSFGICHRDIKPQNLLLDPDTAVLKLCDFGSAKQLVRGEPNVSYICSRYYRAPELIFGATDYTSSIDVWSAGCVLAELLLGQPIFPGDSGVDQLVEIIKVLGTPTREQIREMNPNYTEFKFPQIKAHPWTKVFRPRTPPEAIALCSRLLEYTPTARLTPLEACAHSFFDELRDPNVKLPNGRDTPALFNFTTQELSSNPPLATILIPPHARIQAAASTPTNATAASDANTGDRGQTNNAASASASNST

Compound | IC50 [1, 3] [µM] | IC50 [2, 4] [µM] | IC50 [1, 5] [µM] | IC50 [2, 6] [µM] | also measured
CC1(C)CC(=O)C2=C(C1)Nc1n[nH]cc1C21CN(C(=O)c2ccccc2)C1 [Compound 893315] | > 5 | > 5 |  |  | 
C[C@@H]1C[C@H](C)C(=O)C2=C1Nc1n[nH]cc1C21CCOCC1 [Compound 893316] | 0.1 to 1 | ≤ 0.1 |  |  | 
C[C@H]1CCC[C@]2(C1)C1=C(CC(C)(C)CC1=O)Nc1n[nH]cc12 [Compound 893318] |  |  | 0.1 to 1 | 0.1 to 1 | 
C[C@H]1CCC[C@@]2(C1)C1=C(CC(C)(C)CC1=O)Nc1n[nH]cc12 [Compound 893319] |  |  | 0.1 to 1 | 0.1 to 1 | 
C[C@@H]1CCC[C@@]2(C1)C1=C(CC(C)(C)CC1=O)Nc1n[nH]cc12 [Compound 893320] |  |  | ≤ 0.1 | ≤ 0.1 | 
CCC1(c2cc(-c3ccncc3)ccc2C)C2=C(CC(C)(C)CC2=O)Nc2n[nH]cc21 (stereo not drawn) [Compound 893323] | 0.1 to 1 | ≤ 0.1 |  |  | IC50 [1, 7]: > 5 µM; IC50 ([2]; read-out: GSK3-A (TR-FRET 1 mM ATP), GMean, IC50, 1 mM ATP, geometric mean): 0.1 to 1 µM
CC[C@]1(c2cc(-c3ccncc3)ccc2F)C2=C(CC(C)(C)CC2=O)Nc2n[nH]cc21 [Compound 893324] | > 5 | 1 to 5 |  |  | 
CC1(C)CC(=O)C2=C(C1)Nc1n[nH]cc1C21CCS(=O)(=O)CC1 [Compound 896013] |  |  | 0.1 to 1 | 0.1 to 1 | 
CCC1(c2cccc(C(F)(F)F)c2)C2=C(CCN(Cc3ccccc3)C2=O)Nc2n[nH]cc21 (stereo not drawn) [Compound 897749] |  |  |  |  | IC50 [1, 8]: > 5 µM; IC50 [2, 9]: 0.1 to 1 µM
C[C@@H]1CC[C@]2(C1)C1=C(CC(C)(C)CC1=O)Nc1n[nH]cc12 [Compound 897750] |  |  | ≤ 0.1 | ≤ 0.1 | 
C[C@H]1CC[C@@]2(C1)C1=C(CC(C)(C)CC1=O)Nc1n[nH]cc12 [Compound 897751] |  |  | 0.1 to 1 | ≤ 0.1 | 
CC1(C)CC(=O)C2=C(C1)Nc1n[nH]cc1C21Cc2ccccc2C1 [Compound 897752] |  |  | 0.1 to 1 | ≤ 0.1 | 
CC1(C)CC(=O)C2=C(C1)Nc1n[nH]cc1[C@@]21CCOC2(CCC2)C1 [Compound 897755] |  |  |  |  | IC50 [1, 8]: 1 to 5 µM; IC50 [2, 9]: 1 to 5 µM
CC1(C)CC(=O)C2=C(C1)Nc1n[nH]cc1[C@]21CCOC2(CCC2)C1 [Compound 897756] |  |  |  |  | IC50 [1, 8]: 0.1 to 1 µM; IC50 [2, 9]: 0.1 to 1 µM
C[C@@H]1C[C@]2(CCO1)C1=C(CC(C)(C)CC1=O)Nc1n[nH]cc12 [Compound 899559] | 1 to 5 | 0.1 to 1 |  |  | 
C[C@H]1C[C@@]2(CCO1)C1=C(CC(C)(C)CC1=O)Nc1n[nH]cc12 [Compound 899560] |  |  | 1 to 5 | 0.1 to 1 | 
CC1(C(F)(F)F)CC(=O)C2=C(C1)Nc1n[nH]cc1C21CCOCC1 (stereo not drawn) [Compound 901458] |  |  | 0.1 to 1 | 0.1 to 1 | 
O=C1C2=C(Nc3n[nH]cc3C23CCOCC3)C2CCC1C2 (stereo not drawn) [Compound 901464] |  |  | 0.1 to 1 | 0.1 to 1 | 
CC1(C)CC(=O)C2=C(C1)Nc1n[nH]cc1C21CCN(S(=O)(=O)c2ccccc2F)CC1 [Compound 901465] |  |  | ≤ 0.1 | ≤ 0.1 | IC50 [1, 10]: 0.1 to 1 µM; IC50 [2, 11]: ≤ 0.1 µM
CC1(C)CC(=O)C2=C(C1)Nc1n[nH]cc1C21CCN(S(=O)(=O)c2cccc(F)c2)CC1 [Compound 901466] |  |  | ≤ 0.1 | ≤ 0.1 | 
Cn1cc(S(=O)(=O)N2CCC3(CC2)C2=C(CC(C)(C)CC2=O)Nc2n[nH]cc23)cn1 [Compound 901467] |  |  | ≤ 0.1 | ≤ 0.1 | IC50 [1, 10]: 1 to 5 µM; IC50 [2, 11]: 0.1 to 1 µM
COc1cccc(S(=O)(=O)N2CCC3(CC2)C2=C(CC(C)(C)CC2=O)Nc2n[nH]cc23)c1 [Compound 901468] |  |  | ≤ 0.1 | ≤ 0.1 | IC50 [1, 10]: 1 to 5 µM; IC50 [2, 11]: 0.1 to 1 µM
COc1ccc(S(=O)(=O)N2CCC3(CC2)C2=C(CC(C)(C)CC2=O)Nc2n[nH]cc23)cc1 [Compound 901469] |  |  |  |  | IC50 [1, 10]: 0.1 to 1 µM; IC50 [2, 11]: 0.1 to 1 µM
CC1(C)CC(=O)C2=C(C1)Nc1n[nH]cc1C21CCN(S(=O)(=O)C2CC2)CC1 [Compound 901470] |  |  | ≤ 0.1 | ≤ 0.1 | IC50 [1, 10]: 0.1 to 1 µM; IC50 [2, 11]: 0.1 to 1 µM
Cn1ccc(S(=O)(=O)N2CCC3(CC2)C2=C(CC(C)(C)CC2=O)Nc2n[nH]cc23)n1 [Compound 901471] |  |  | ≤ 0.1 | ≤ 0.1 | IC50 [1, 10]: 1 to 5 µM; IC50 [2, 11]: 0.1 to 1 µM
CO[C@H]1C[C@@]2(C1)C1=C(CC(C)(C)CC1=O)Nc1n[nH]cc12 [Compound 901472] | > 5 | > 5 |  |  | 
CC1(C)CC(=O)C2=C(C1)Nc1n[nH]cc1[C@@]21CCOC2(CCCC2)C1 [Compound 907326] |  |  |  |  | IC50 [1, 8]: 1 to 5 µM; IC50 [2, 9]: 0.1 to 1 µM
CC1(C)CC(=O)C2=C(C1)Nc1n[nH]cc1[C@]21CCOC2(CCCC2)C1 [Compound 907327] |  |  |  |  | IC50 [1, 8]: 1 to 5 µM; IC50 [2, 9]: 0.1 to 1 µM
CC1(C)CC(=O)C2=C(C1)Nc1n[nH]cc1C21CCN(S(=O)(=O)CC2CC2)CC1 [Compound 909207] |  |  |  |  | IC50 [1, 8]: ≤ 0.1 µM; IC50 [1, 10]: 0.1 to 1 µM; IC50 [2, 9]: ≤ 0.1 µM; IC50 [2, 11]: ≤ 0.1 µM

Second part, led by results:

IC50 [1, 3] [µM] | IC50 [2, 4] [µM] | IC50 [1, 5] [µM] | IC50 [2, 6] [µM] | Compound | also measured
> 5 | > 5 |  |  | CO[C@H]1C[C@]2(C1)C1=C(CC(C)(C)CC1=O)Nc1n[nH]cc12 [Compound 901473] | 
 |  | ≤ 0.1 | ≤ 0.1 | CC1(C)CC(=O)C2=C(C1)Nc1n[nH]cc1C21CN(S(=O)(=O)c2ccccc2)C1 [Compound 901474] | 
 |  | 0.1 to 1 | 0.1 to 1 | O=C1C[C@@]2(CCOC2)CC2=C1C1(CCOCC1)c1c[nH]nc1N2 [Compound 901475] | 
 |  | 0.1 to 1 | 0.1 to 1 | O=C1C[C@]2(CCOC2)CC2=C1C1(CCOCC1)c1c[nH]nc1N2 [Compound 901476] | 
1 to 5 | 0.1 to 1 |  |  | O=C1C[C@H](C(F)(F)F)CC2=C1C1(CCOCC1)c1c[nH]nc1N2 [Compound 901477] | 
0.1 to 1 | 0.1 to 1 |  |  | O=C1C[C@@H](C(F)(F)F)CC2=C1C1(CCOCC1)c1c[nH]nc1N2 [Compound 901478] | 
0.1 to 1 | ≤ 0.1 |  |  | CCC1(c2cccc(OC)c2)C2=C(CC(C)(C)CC2=O)Nc2n[nH]c(C(=O)OC)c21 (stereo not drawn) [Compound 901480] | 
1 to 5 | 0.1 to 1 |  |  | CCC1(c2cccc(N3CC(C)(C)C3C(C)C)c2)C2=C(CC(C)(C)CC2=O)Nc2n[nH]cc21 (stereo not drawn) [Compound 902969] | 
0.1 to 1 | ≤ 0.1 |  |  | CCC1(c2cccc(N(C)c3ccncn3)c2)C2=C(CC(C)(C)CC2=O)Nc2n[nH]cc21 (stereo not drawn) [Compound 902970] | 
≤ 0.1 | ≤ 0.1 |  |  | CCC1(c2cccc(N(C)c3cnccn3)c2)C2=C(CC(C)(C)CC2=O)Nc2n[nH]cc21 (stereo not drawn) [Compound 902971] | 
1 to 5 | 0.1 to 1 |  |  | CC[C@@H]1C[C@]2(CCO1)C1=C(CC(C)(C)CC1=O)Nc1n[nH]cc12 [Compound 907328] | 
1 to 5 | 0.1 to 1 |  |  | CC[C@H]1C[C@@]2(CCO1)C1=C(CC(C)(C)CC1=O)Nc1n[nH]cc12 [Compound 907329] | 
1 to 5 | 0.1 to 1 |  |  | CCC1(c2cccc(N(C)C(=O)CN3CCCC3)c2)C2=C(CC(C)(C)CC2=O)Nc2n[nH]cc21 (stereo not drawn) [Compound 909202] | 
1 to 5 | 0.1 to 1 |  |  | CCC1(c2cc(N3CCOCC3)ccc2F)C2=C(CC(C)(C)CC2=O)Nc2n[nH]cc21 (stereo not drawn) [Compound 909203] | 
≤ 0.1 | ≤ 0.1 |  |  | CCC1(c2cccc(S(=O)(=O)C3CC3)c2)C2=C(CC(C)(C)CC2=O)Nc2n[nH]cc21 (stereo not drawn) [Compound 909204] | IC50 [1, 7]: 0.1 to 1 µM
≤ 0.1 | ≤ 0.1 |  |  | CCCC(C(C)=O)c1cccc(C2(CC)C3=C(CC(C)(C)CC3=O)Nc3n[nH]cc32)c1 (stereo not drawn) [Compound 909205] | 
≤ 0.1 | ≤ 0.1 |  |  | CC1(C)CC(=O)C2=C(C1)Nc1n[nH]cc1C21CCN(S(=O)(=O)C2CCCC2)CC1 [Compound 909206] | IC50 [1, 10]: 0.1 to 1 µM; IC50 [2, 11]: ≤ 0.1 µM
 |  | 0.1 to 1 | ≤ 0.1 | O=C1CC2(CCC2)CC2=C1C1(CCOCC1)c1c[nH]nc1N2 [Compound 909208] | 
1 to 5 | 1 to 5 |  |  | CC1(C)CC(=O)C2=C(C1)Nc1n[nH]cc1C21CN(c2ccncn2)C1 [Compound 909209] | 
 |  | 0.1 to 1 | 0.1 to 1 | CC1(C)CC(=O)C2=C(C1)Nc1n[nH]cc1[C@]21C[C@H](OCc2ccccc2)C1 [Compound 909210] | 
 |  | 0.1 to 1 | ≤ 0.1 | CC1(C)CC(=O)C2=C(C1)Nc1n[nH]cc1[C@]21C[C@@H](OCc2ccccc2)C1 [Compound 909211] | 
> 5 | > 5 |  |  | CC[C@]1(c2cc(-c3ccnc(C)c3)ccc2F)C2=C(CC(C)(C)CC2=O)Nc2n[nH]cc21 [Compound 909213] | 
≤ 0.1 | ≤ 0.1 |  |  | CCN(C(C)=O)c1cccc([C@]2(CC)C3=C(CC(C)(C)CC3=O)Nc3n[nH]cc32)c1 [Compound 909214] | 
1 to 5 | 0.1 to 1 |  |  | CCN(C(C)=O)c1cccc(C2(CC)C3=C(CC(C)(C)CC3=O)Nc3n[nH]cc32)c1 (stereo not drawn) [Compound 909215] | 
